Patent publication US20060116427A1, “Adapalene polymorphic forms” (priority 2004, published 2006)

Tests used:
[1] = Particle size (mean diameter D[4,3]) by laser light scattering, Malvern Mastersizer MS1; format: physicochemical; settings: product as obtained, not micronised
Experimental: According to present invention, when a particles sample is stated to have mean diameter, referred to as D[4,3], higher than X μm, this means that the mean volume of the particles constituting the sample is higher than the volume of a spherical particle with diameter X.
The particle sizes, i.e. mean diameter values D[4,3], were determined with the known technique of laser light scattering using a Malvern Mastersizer MS1 instrumentation under the following operative conditions: • 300RF mm lens with laser beam length of 2.4 mm; • 100 mg sample dispersed in 100 ml of isopar and 0.5 ml of a 2% solution of lecithin in isopar, with 3 min presonication and 2500 rpm stirring rate.

[2] = Stability of the solid form at room temperature; format: physicochemical

Row | Structure (SMILES) | mean D[4,3] diameter of particles ([1]; listed as Adapalene Amorphous Form) | stability of the polymorphic form [2] | mean D[4,3] diameter of particles ([1]; listed as Adapalene Crystalline Form α) | mean D[4,3] diameter of particles ([1]; listed as adapalene crystalline Form a)
1 | COc1ccc(-c2ccc3cc(C(=O)O)ccc3c2)cc1C12CC3CC(CC(C3)C1)C2 [adapalene amorphous Form, 6-[3-(1-adamantyl)-4-methoxyphenyl]-2-naphthoic acid] | approx. 15 μm | – | – | –
2 | COc1ccc(-c2ccc3cc(C(=O)O)ccc3c2)cc1C12CC3CC(CC(C3)C1)C2 [adapalene crystalline Form α, 6-[3-(1-adamantyl)-4-methoxyphenyl]-2-naphthoic acid] | – | stable at room temperature | approx. 15 μm | about 15 μm
